Experimental data as given in paper PMC6344862, “Hexameric assembly of the AAA+ protein McrB is necessary for GTPase activity” (Nucleic Acids Research, 2018).
Each block holds one molecule with its values, some of them ahead of it.

Experiments:
[1] = target: T1, McrBC (Escherichia coli, UniProt P15005); experiment: steady-state intrinsic tryptophan fluorescence; format: binding; conditions: 0.5 uM McrB, 0.125 uM McrC, 1 mM nucleotide, 5 mM MgCl2, pH 8, 25 C
T1 construct: gene mcrB; full-length McrB with C-terminal Gly-Ser-His6 plus untagged McrC, mixed 4:1 or SEC-purified complex; tetradecamer 734 kDa; with Type IV methyl-directed restriction enzyme EcoKMcrBC (5-methylcytosine-specific restriction enzyme subunit McrC)

[2] = target: T2, McrBΔN (Escherichia coli, UniProt P15005); experiment: electron cryomicroscopy 2D class averages, hexamer; format: binding; conditions: 1 mM GDPNP, 1 mM MgCl2, pH 7.4
T2 construct: gene mcrB; C-terminal Gly-Ser-His6 tag (untagged version for SAXS)

[3] = target: T3, McrB (Escherichia coli, UniProt P15005); experiment: steady-state intrinsic tryptophan fluorescence; format: binding; conditions: 0.5 uM McrB, 1 mM nucleotide, 5 mM MgCl2, pH 8, 25 C
[4] = target: McrB (Escherichia coli, UniProt P15005, E280Q); experiment: SEC-MALS, hexamer with nucleotide; format: binding; conditions: 18 uM protein
[5] = target: T2, McrBΔN; experiment: SEC, nucleotide-induced oligomerisation; format: binding; conditions: 18 uM protein, MgCl2, pH 8
[6] = target: McrB (Escherichia coli, UniProt P15005, E280A); experiment: SEC-MALS, hexamer with nucleotide; format: binding; conditions: 18 uM protein
[7] = target: T3, McrB; experiment: SEC, nucleotide-induced oligomerisation; format: binding; conditions: 18 uM protein, MgCl2, pH 8
[8] = target: T2, McrBΔN; experiment: malachite green GTPase; SEC and SEC-MALS oligomerisation; format: biochemical; conditions: 1 mM GTP, 15 mM MgCl2, 50 mM KCl, pH 8, 37 C
[9] = target: T4, McrBΔNC (Escherichia coli, UniProt P15005); experiment: SAXS of nucleotide-dependent tetradecamer; format: binding; conditions: 1 mg/ml protein
T4 construct: gene mcrB; McrB residues 162-460 (without His6 tag for SEC-MALS and SAXS) plus untagged McrC; tetradecamer 500 kDa; with Type IV methyl-directed restriction enzyme EcoKMcrBC (5-methylcytosine-specific restriction enzyme subunit McrC)

[10] = target: T2, McrBΔN; experiment: SAXS of nucleotide-dependent hexamer; format: binding; conditions: McrBΔN without His-tag, 1 mg/ml
[11] = target: McrBΔN^WT (McrBΔN without His6 tag) (Escherichia coli K12) (UniProt P15005); experiment: SEC-MALS; Superose 6 10/300, 0.5 ml/min, 10 mM Tris-Cl pH 7.4, 100 mM NaCl, 1 mM MgCl2, 1 mM DTT, 0.1 mM GTP; McrBC and McrBΔNC complexes run at 0.6 mg/ml
[12] = target: McrB (full length, C-terminal His6) (Escherichia coli K12) (UniProt P15005); experiment: as above
[13] = target: McrBΔN^WT (McrBΔN without His6 tag) (Escherichia coli K12) (UniProt P15005); experiment: SAXS; 1 mg/ml protein in buffer B100 with GTPγS, 15°C, beamline B21 Diamond; mass by SAXSMoW2

- Trp fluorescence increase [1]: ~ 15%
- Trp fluorescence increase [3]: ~ 20%
Molecule: Nc1nc2c(ncn2[C@@H]2O[C@H](COP(=O)(O)OP(=O)(O)NP(=O)(O)O)[C@@H](O)[C@H]2O)c(=O)[nH]1 [GDPNP]
- electron cryomicroscopy 2D class averages, hexamer [2]: Imaging of McrB or McrBΔN after the addition of GDPNP showed round particles

Molecule: Nc1nc2c(ncn2[C@@H]2O[C@H](COP(=O)(O)OP(=O)(O)O)[C@@H](O)[C@H]2O)c(=O)[nH]1 [GDP]
- SEC-MALS, hexamer with nucleotide [4]: had a mass comparable to wild type McrB hexamer in presence of GTP or GDP
- SEC, nucleotide-induced oligomerisation [5]: In presence of GTP or GDP, McrB and McrBΔN eluted as a high molecular mass oligomer
- SEC-MALS, hexamer with nucleotide [6]: had a mass comparable to wild type McrB hexamer in presence of GTP or GDP
- SEC, nucleotide-induced oligomerisation [7]: In presence of GTP or GDP, McrB and McrBΔN eluted as a high molecular mass oligomer

- Trp fluorescence increase ([1]; GTP hydrolysed by this complex): ~ 15%
- Trp fluorescence increase ([3]; weak GTPase without McrC): ~ 20%
Molecule: Nc1nc2c(ncn2[C@@H]2O[C@H](COP(=O)(O)OP(=O)(O)OP(=O)(O)O)[C@@H](O)[C@H]2O)c(=O)[nH]1 [GTP]
- SEC-MALS, hexamer with nucleotide [4]: had a mass comparable to wild type McrB hexamer in presence of GTP or GDP
- SEC-MALS, hexamer with nucleotide [6]: had a mass comparable to wild type McrB hexamer in presence of GTP or GDP
- malachite green GTPase; SEC and SEC-MALS oligomerisation [8]: only a weak GTPase activity for both McrB (Figure 5A) and McrBΔN

- Trp fluorescence increase [1]: ~ 23%
- Trp fluorescence increase [3]: ~ 30%
Molecule: Nc1nc2c(ncn2[C@@H]2O[C@H](COP(=O)(O)OP(=O)(O)OP(O)(O)=S)[C@@H](O)[C@H]2O)c(=O)[nH]1 [GTPγS]
- SAXS of nucleotide-dependent tetradecamer [9]: Good quality data was collected for McrBΔN and McrBΔNC in presence of the non-hydrolysable analogue GTPγS
- SAXS of nucleotide-dependent hexamer [10]: Good quality data was collected for McrBΔN and McrBΔNC in presence of the non-hydrolysable analogue GTPγS

- copies of McrB in the complex [11]: 12
- copies of McrC in the complex [11]: 2
- copies of McrB in the complex [12]: 12
- copies of McrC in the complex [12]: 2
- copies of McrB in the complex [13]: 12
- copies of McrC in the complex [13]: 2
B1: McrC (natural protein)
chain: MEQPVIPVRNIYYMLTYAWGYLQEIKQANLEAIPGNNLLDILGYVLNKGVLQLSRRGLELDYNPNTEIIPGIKGRIEFAKTIRGFHLNHGKTVSTFDMLNEDTLANRIIKSTLAILIKHEKLNSTIRDEARSLYRKLPGISTLHLTPQHFSYLNGGKNTRYYKFVISVCKFIVNNSIPGQNKGHYRFYDFERNEKEMSLLYQKFLYEFCRRELTSANTTRSYLKWDASSISDQSLNLLPRMETDITIRSSEKILIVDAKYYKSIFSRRMGTEKFHSQNLYQLMNYLWSLKPENGENIGGLLIYPHVDTAVKHRYKINGFDIGLCTVNLGQEWPCIHQELLDIFDEYLK
